The test system of one series is FK binding protein. In words: Standard test for FK binding protein binding activity. Conditions: standard tests.
The subject of a further series is calcineurin. Put plainly: Standard test for calcineurin activity. The class given is biochemical. The note with it: standard tests.
For series [1], the system named is human monocytic cell line THP1. Put plainly: Cytotoxicity, MTT read-out. The class given is cell-based. The method, then: Cytotoxicity is determined using the human monocytic cell line THP1 (5×10^4 cells/well) which are incubated in the presence of IFNgamma (100 U/ml) and LPS (5 microgram/ml) plus test compound (up to 10 micromolar) for 24 to 72 h at 37° C. Living cells are quantified using the colourimetric read-out MTT which measures mitochondrial dehydrogenase enzymatic activity in living cells (Mossman 1983). Macrolides of the invention, e.g. compounds of formula IX and their pharmaceutically acceptable salts, e.g. Sanglifehrins A, B, C and D, have IC50 of about 1000-5000 nM after 24 h incubation in this assay. (Mossman T. J. (1983), Rapid calorimetric assay for cellular growth and survival: application to proliferation and cytotoxic assays, J. Imm. Methods, 65, 55-63).

For Sanglifehrin A, in the series on FK binding protein, the “FK binding protein binding activity” value is “do not have FK binding protein binding activity”. Also, the “inhibition of calcineurin activity” value in the series with calcineurin is “do not inhibit calcineurin activity”.
Sanglifehrin B: in series [1], the IC50 is 1000 to 5000 nM. Also, the “FK binding protein binding activity” value with FK binding protein is “do not have FK binding protein binding activity”. The “inhibition of calcineurin activity” value in the series with calcineurin is recorded as “do not inhibit calcineurin activity”.

In general, IC50 refers to the concentration at which inhibition is half-maximal.

The values are drawn from patent US20090221598A1, “Use of Sanglifehrin in HCV” (priority 2005, published 2009).
